Data set [1] can be described thus: Viscosity, Brookfield viscometer DV-II+ (Spindle No. 2, 12 rpm, 25° C.). It is filed as physicochemical. The note with it: for Viscosity: 25° C.; for Feeling of use: class assigned from viscosity at 25° C.
Protocol: In this specification, “viscosity” refers to a value of viscosity measured using a Brookfield viscometer DV-II+ (Spindle No. 2, 12 rpm, 25° C.).
In these examples, viscosity was measured using a Brookfield viscometer DV-II+ (Spindle No. 2, 12 rpm, 25° C.).
Data set [2] is described as follows: Water solubility evaluation. The note with it: in water.
Data set [3] in a line: Oil solubility evaluation in KAK99. The note with it: in KAK99 (isononyl isononanoate).

Structures can show the parent of a compound that is named as a salt.

Regarding `CCOCCOCCOC(=O)CCC(=O)OCCOCCOCC` [Example 1, dicarbitol succinate], in data set [1], the Viscosity is 12.5 mPa · s and the Feeling of use result was “light”.

The molecule `CCOCCOCCOC(=O)CC(O)C(=O)OCCOCCOCC` (stereo not drawn) [Example 2, dicarbitol malate] yielded a Viscosity in data set [1] of 45 mPa · s. In data set [2], the Water solubility result is “◯ (Dissolved in water up to 10% by mass)”. Further, in data set [3], the Oil solubility result was “Δ (Dissolved in KAK99 up to 5% by mass)”.

`CCOCCOCCOCCOC(=O)CCC(=O)OCCOCCOCCOCC` [Example 5, di(triethylene glycol monoethyl ether) succinate] displayed a Viscosity in data set [1] of 32.5 mPa · s. The Oil solubility entry in data set [3] is reported as “Δ (Dissolved in KAK99 up to 5% by mass)”.

Take `CCOCCOCCOC(=O)CCCCC(=O)OCCOCCOCC` [Example 3, dicarbitol adipate]: in data set [1], the Viscosity is listed as 20 mPa · s and the Feeling of use result was “light”.

In the case of `CCOCCOC(=O)CCC(=O)OCCOCC` [Example 6, di(monoethylene glycol monoethyl ether) succinate], in data set [1], the Viscosity is given as 10.0 mPa · s and the Feeling of use result was “light”. Also, in data set [2], the Water solubility entry is “Δ (Dissolved in water up to 5% by mass)”.

For `CCOCCOCCOC(=O)C(O)C(O)C(=O)OCCOCCOCC` (stereo not drawn) [Example 4, dicarbitol tartrate], the Viscosity in data set [1] is given as 207 mPa · s.

In the case of “dicarbitol isononanoate [compound 1, reference compound]”, in data set [1], the Viscosity was determined as 5 mPa · s and the Feeling of use entry was “light”.

For the origin of these results see patent US20080200544A1, “Oil agent and lubricant agent, moisturizer and external preparation composition containing the same” (priority 2007, published 2008).
